Measured values from patent publication US20180344637A1, “WATER SOLUBLE MICELLAR DRUG DELIVERY AGENTS” (Wayne State University, priority 2015, published 2018).
≈ marks a conversion by molar mass, not a printed value.

How the values were obtained:
[1] = tested on: AsPC-1 cells; assay: In vitro MTT cytotoxicity assay; format: cell-based, human; conditions: 72 h
Experimental: (§1) Human pancreatic cancer cell lines MiaPaCa-2 and AsPC-1 were used. Both cell lines were maintained in Dulbecco's Modified Eagle's Medium (DMEM; Invitrogen), supplemented with 5% FBS, 2 mmol/L glutamine, 50 units/mL penicillin, and 50 μg/mL streptomycin under standard culture conditions. The cell lines have been tested and authenticated in the core facility of Applied Genomics Technology Center at Wayne State University. The method used for testing was short tandem repeat profiling using the PowerPlex 16 System from Promega.
(§2) The in vitro cytotoxicity of free CDF, CUR, SMA and micelles was evaluated by MTT cytotoxicity assay based on measurement of the activity of enzymes present in live cells that reduces MTT to give a purple color. Cells were seeded in a 96-well culture plate and the formulations were applied 24 h after seeding as freshly prepared solutions in PBS (pH 7.4) using between 100 to 1000 nM concentrations of the test agents. MTT (0.5 mg/ml) was added at the end of treatment (72 h) and plates incubated at 37° C. for 2 h, followed by replacement of media with DMSO at room temperature for 30 min and absorbance were measured at 590 nm using Ultra Multi-functional Micro plate Reader (TECAN).

[2] = tested on: MiaPaCa-2 cells; assay: In vitro MTT cytotoxicity assay; format: cell-based, human; conditions: 72 h
Experimental: as §1, §2

[3] = tested on: MiaPaCa-2 cells; assay: MTT assay before and after HA receptor blockade; format: cell-based, human; conditions: MiaPaCa-2, 72 h
Excerpt: FIG. 13(c) and FIG. 13(d) show comparisons of percent cell viability of different formulations before and after HA receptor blockade.

[4] = tested on: CD44+ cells (CD44+/CD133+/EpCAM+ CSLCs from MiaPaCa-2); assay: MTT assay on CD44+ versus CD44− pancreatic cancer cells; format: cell-based, human; conditions: 72 h
Experimental: The CSLCs (triple-marker positive; CD44+/CD133+/EpCAM+) and triple-marker negative (CD44−/CD133−/EpCAM−) cells were isolated from human pancreatic MiaPaCa-2 cells, by fluorescence-activated cell sorting (FACS) technique. The postsorted cells were subsequently maintained in 5% FBS-DMEM media at 37° C. under standard culture conditions.
Triple-marker positive (CD44+/CD133+/EpCAM+) CSLCs and triple-marker-negative (CD44−/CD133−/EpCAM−) cells were isolated and cultured as described in above and seeded in a 96-well culture plate, and subsequently free CDF, HA-SMA, nontargeted (SMA-CDF), and targeted (HA-SMA-CDF) nanomicelles were applied 24 h after seeding as a freshly prepared solution in DMSO diluted with PBS (pH 7.4) at between 250 to 750 nM concentration, MTT reagent was added and the absorbance measured at 595 nm using an Ultramultifunctional Microplate Reader ([…], Switzerland), and percent cell viability was determined by comparing the values with appropriate controls.

[5] = tested on: CD44; assay: Western blot analysis of CD44 expression; format: cell-based, human; conditions: 250 nM, 48 h, triple marker positive CSLCs, versus untreated and HA-SMA controls
Experimental: Triple marker positive CSLCs derived from MiaPaCa-2 were plated and allowed to attach for 36 h. CDF loaded formulations were directly added to cell cultures at 250 nM concentration and incubated for 48 h. Untreated (control) and HASMA treated (control) cells were incubated in the medium containing an equivalent concentration of PBS. After incubation, the cells were collected in PBS, and whole cell lysate was prepared by suspending the cells in 150 μL of lysis buffer [1 mol/L Tris-HCl (pH 7.5), 150 mmol/L NaCl, 1 mmol/L EDTA, 0.1% Triton X-100, 0.1 mmol/L sodium orthovanadate, 1 mmol/L phenylmethylsulfonyl fluoride ([…]), and 2 μg/mL leupeptin and 2μg,/mL aprotinin] lysed, and centrifuged. The cells were disrupted by sonication (Branson Ultrasonics, Danbury, Conn.), and the total protein content was determined by bicinchoninic acid (BCA) assay. For immunoblotting, 30 μg of total proteins was separated on SDS-PAGE, electro-transferred onto nitrocellulose membranes, and probed with specific antibodies ([…], MA). Detection of specific proteins was carried out with an enhanced chemiluminescence western blotting kit according to the manufacturer's instructions (Life Technologies, Waltham, Mass.).

[6] = cited from earlier work

IC50 ([3]; after receptor blockade using free soluble HA) [nM]	IC50 ([3]; before the blockade of HA receptors) [nM]	IC50 [4] [nM]	SMILES	IC50 [1] [nM]	cell viability ([2]; 1000 nM CDF equivalent concentration, MiaPaCa-2) [%]	anticancer activity compared to free CMN (in words) ([2]; MTT)	IC50 ([2]; MiaPaCa-2 cells) [nM]	expression of CD44 levels (in words) [5]	water solubility ([6]; free form) [µg/mL]	water solubility (estimated) [6] [µM]
473 ± 8.69	465 ± 7.34	410 ± 3.64	COc1cc(/C=C/C(=O)C(=Cc2ccc(F)c(F)c2)C(=O)/C=C/c2ccc(O)c(OC)c2)ccc1O [CDF, curcumin difluorinated]	810 ± 1.51	28.47±2.29	significantly improved anticancer activity	400 ± 4.53	marked reduction	0.6 (≈ 1.22 µM)	
			CC(=O)O[C@@]12CO[C@@H]1C[C@H](O)[C@@]1(C)C(=O)[C@H](O)C3=C(C)[C@@H](OC(=O)[C@H](O)[C@@H](NC(=O)OC(C)(C)C)c4ccccc4)C[C@@](O)([C@@H](OC(=O)c4ccccc4)[C@H]21)C3(C)C [Docetaxel, docetaxel]							10 to 20
			CC(=O)O[C@H]1C(=O)[C@@]2(C)[C@H]([C@H](OC(=O)c3ccccc3)[C@]3(O)C[C@H](OC(=O)[C@H](O)[C@@H](NC(=O)c4ccccc4)c4ccccc4)C(C)=C1C3(C)C)[C@]1(OC(C)=O)CO[C@@H]1C[C@@H]2O [Paclitaxel, paclitaxel]							10 to 20
